This passage reports Ki results from patent US9346786B2, “Pyrrolidine compounds” (Hoffmann-La Roche Inc., priority 2009, dated 2016).

A word on the Ki: it is the dissociation constant of the complex between target and ligand, obtained from inhibition or displacement.

SMILES strings stand for the structures.

In the first experiment the target is recombinant human NK3 receptor (Homo sapiens (Human), UniProt P29371). Nature of the experiment: biochemical. The experiment is classed as binding.
Chain of recombinant human NK3 receptor (P29371 whole entry): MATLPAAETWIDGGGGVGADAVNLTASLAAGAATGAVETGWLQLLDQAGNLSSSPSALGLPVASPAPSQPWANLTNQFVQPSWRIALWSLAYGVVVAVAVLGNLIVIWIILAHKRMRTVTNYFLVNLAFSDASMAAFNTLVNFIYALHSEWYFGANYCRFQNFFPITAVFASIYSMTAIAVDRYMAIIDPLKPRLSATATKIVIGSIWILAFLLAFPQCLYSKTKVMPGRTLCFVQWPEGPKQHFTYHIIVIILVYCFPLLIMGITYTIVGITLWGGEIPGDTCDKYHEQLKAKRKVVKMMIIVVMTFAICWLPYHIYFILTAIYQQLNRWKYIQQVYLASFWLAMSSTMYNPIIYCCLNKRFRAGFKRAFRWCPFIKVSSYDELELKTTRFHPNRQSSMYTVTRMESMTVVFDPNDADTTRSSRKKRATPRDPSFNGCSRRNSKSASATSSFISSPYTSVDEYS
Conditions: not given
As for the experimental part:
[^3H]SR142801 Competition Binding Assay
hNK3 receptor binding experiment were performed using [^3H]SR142801 (Catalog No. TRK1035, specific activity: 74.0 Ci/mmol, Amersham, GE Healthcare UK limited, Buckinghamshire, UK) and membrane isolated from HEK293 cells transiently expressing recombinant human NK3 receptor. After thawing, the membrane homogenates were centrifuged at 48,000×g for […] at 4° C., the pellets were resuspended in the 50 mM Tris-HCl, 4 mM MnCl2, 1 μM phosphoramidon, 0.1% BSA binding buffer at pH 7.4 to a final assay concentration of 5 μg protein/well. For inhibition experiments, membranes were incubated with [^3H]SR142801 at a concentration equal to KD value of radioligand and 10 concentrations of the inhibitory compound (0.0003-10 μM) (in a total reaction volume of 500 μl) for 75 min at room temperature (RT). At the end of the incubation, membranes were filtered onto unitfilter (96-well white microplate with bonded GF/C filter preincubated 1 h in 0.3% PEI+0.3% BSA, Packard BioScience, Meriden, Conn.) with a Filtermate 196 harvester (Packard BioScience) and washed 4 times with ice-cold 50 mM Tris-HCl, pH 7.4 buffer. Nonspecific binding was measured in the presence of 10 μM SB222200 for both radioligands. The radioactivity on the filter was counted (5 min) on a Packard Top-count microplate scintillation counter with quenching correction after addition of 45 μl of microscint 40 (Canberra Packard S.A., Zürich, Switzerland) and shaking for 1 h. Inhibition curves were fitted according to the Hill equation: y=100/(1+(x/IC50)^nH), where nH=slope factor using Excel-fit 4 software (Microsoft). IC50 values were derived from the inhibition curve and the affinity constant (Ki) values were calculated using the Cheng-Prussoff equation Ki=IC50/(1+[L]/KD) where [L] is the concentration of radioligand and KD is its dissociation constant at the receptor, derived from the saturation isotherm. All experiments were performed in duplicate and the mean±standard error (SEM) of the individual Ki values was calculated.
For the compound `CCN(C(=O)Oc1ccc(F)cc1)[C@@H]1CN(C(=O)C2CCN(C(=O)C3(C)CC3)CC2)C[C@H]1c1ccc(Cl)c(Cl)c1` (racemic) [Example 1, rac-{(3S,4R)-4-(3,4-Dichloro-phenyl)-1-[1-(1-methyl-cyclopropanecarbonyl)-piperidine-4-carbonyl]-pyrrolidin-3-yl}-ethyl-carbamic acid 4-fluoro-phenyl ester], the Ki is 0.001 µM.

The same experiment, now with this note: [3H]SR142801, membranes of HEK293 cells transiently expressing recombinant human NK3 receptor; read-out: Data Ki (hNK-3 receptor affinity).
Consider `CC(C)N(C(=O)Oc1ccc(F)cc1)[C@@H]1CN(C(=O)C2CCN(C(=O)C3(C)CC3)CC2)C[C@H]1c1ccc(Cl)c(Cl)c1` (racemic) [Example 2, rac-{(3S,4R)-4-(3,4-Dichloro-phenyl)-1-[1-(1-methyl-cyclopropanecarbonyl)-piperidine-4-carbonyl]-pyrrolidin-3-yl}-isopropyl-carbamic acid 4-fluoro-phenyl ester], for which the Ki turned out to be 0.046 µM.
For `CC(C)CN(C(=O)Oc1ccc(F)cc1)[C@@H]1CN(C(=O)C2CCN(C(=O)C3(C)CC3)CC2)C[C@H]1c1ccc(Cl)c(Cl)c1` (racemic) [Example 3, rac-{(3S,4R)-4-(3,4-Dichloro-phenyl)-1-[1-(1-methyl-cyclopropanecarbonyl)-piperidine-4-carbonyl]-pyrrolidin-3-yl}-isobutyl-carbamic acid 4-fluoro-phenyl ester], the Ki stood at 0.276 µM.
Turning to `CC1(C(=O)N2CCC(C(=O)N3C[C@@H](N(C(=O)Oc4ccc(F)cc4)C4CC4)[C@H](c4ccc(Cl)c(Cl)c4)C3)CC2)CC1` (racemic) [Example 4, rac-{(3S,4R)-4-(3,4-Dichloro-phenyl)-1-[1-(1-methyl-cyclopropanecarbonyl)-piperidine-4-carbonyl]-pyrrolidin-3-yl}-cyclopropyl-carbamic acid 4-fluoro-phenyl ester], the Ki amounted to 0.01 µM.
In the case of `CCN(C(=O)Oc1ccc(F)cc1)[C@H]1CN(C(=O)C2CCN(c3ncc(C#N)cn3)CC2)C[C@@H]1c1ccc(Cl)cc1` [Example 7, {(3R,4S)-4-(4-Chloro-phenyl)-1-[1-(5-cyano-pyrimidin-2-yl)-piperidine-4-carbonyl]-pyrrolidin-3-yl}-ethyl-carbamic acid 4-fluoro-phenyl ester], the Ki came to 0.089 µM.
Same read-out and setting: next, `CCN(C(=O)Oc1ccc(F)cc1)[C@H]1CN(C(=O)C2CCN(c3ccc(C(C)=O)cn3)CC2)C[C@@H]1c1ccc(Cl)cc1` [Example 8, [(3R,4S)-1-(5′-Acetyl-3,4,5,6-tetrahydro-2H-[1,2′]bipyridinyl-4-carbonyl)-4-(4-chloro-phenyl)-pyrrolidin-3-yl]-ethyl-carbamic acid 4-fluoro-phenyl ester]: 0.055 µM; `CCN(C(=O)Oc1ccc(F)cc1)[C@H]1CN(C(=O)C2CCN(c3ccc(S(C)(=O)=O)cn3)CC2)C[C@@H]1c1ccc(Cl)cc1` [Example 10, [(3R,4S)-4-(4-Chloro-phenyl)-1-(5′-methanesulfonyl-3,4,5,6-tetrahydro-2H-[1,2′]bipyridinyl-4-carbonyl)-pyrrolidin-3-yl]-ethyl-carbamic acid 4-fluoro-phenyl ester]: 0.065 µM; `CCN(C(=O)Oc1ccc(F)cc1)[C@H]1CN(C(=O)C2CCN(c3ccc(C#N)nn3)CC2)C[C@@H]1c1ccc(Cl)cc1` [Example 12, {(3R,4S)-4-(4-Chloro-phenyl)-1-[1-(6-cyano-pyridazin-3-yl)-piperidine-4-carbonyl]-pyrrolidin-3-yl}-ethyl-carbamic acid 4-fluoro-phenyl ester]: 0.023 µM.
Regarding `CCN(C(=O)Oc1ccc(F)cc1)[C@@H]1CN(C(=O)C2CCN(c3ncc(C#N)cn3)CC2)C[C@H]1c1ccc(Cl)cc1` [Example 13, {(3S,4R)-4-(4-Chloro-phenyl)-1-[1-(5-cyano-pyrimidin-2-yl)-piperidine-4-carbonyl]-pyrrolidin-3-yl}-ethyl-carbamic acid 4-fluoro-phenyl ester], the Ki turned out to be 0.008 µM.
Regarding `CCN(C(=O)Oc1ccc(F)cc1)[C@@H]1CN(C(=O)C2CCN(c3ccc(C(C)=O)cn3)CC2)C[C@H]1c1ccc(Cl)cc1` [Example 14, [(3S,4R)-1-(5′-Acetyl-3,4,5,6-tetrahydro-2H-[1,2′]bipyridinyl-4-carbonyl)-4-(4-chloro-phenyl)-pyrrolidin-3-yl]-ethyl-carbamic acid 4-fluoro-phenyl ester], the inhibition constant (Ki) was 0.003 µM.
As for `CCN(C(=O)Oc1ccc(F)cc1)[C@@H]1CN(C(=O)C2CCN(c3ccc(S(C)(=O)=O)cn3)CC2)C[C@H]1c1ccc(Cl)cc1` [Example 16, [(3S,4R)-4-(4-Chloro-phenyl)-1-(5′-methanesulfonyl-3,4,5,6-tetrahydro-2H-[1,2′]bipyridinyl-4-carbonyl)-pyrrolidin-3-yl]-ethyl-carbamic acid 4-fluoro-phenyl ester], the inhibition constant (Ki) was 0.002 µM.
Regarding `CCN(C(=O)Oc1ccc(F)cc1)[C@@H]1CN(C(=O)C2CCN(c3ccc(C#N)nn3)CC2)C[C@H]1c1ccc(Cl)cc1` [Example 18, {(3S,4R)-4-(4-Chloro-phenyl)-1-[1-(6-cyano-pyridazin-3-yl)-piperidine-4-carbonyl]-pyrrolidin-3-yl}-ethyl-carbamic acid 4-fluoro-phenyl ester], the inhibition constant (Ki) worked out at 0.002 µM.

The same experiment, now with this note: read-out: Data Ki (hNK-3 receptor affinity).
Take `CCN(C(=O)Oc1ccc(F)cc1)[C@@H]1CN(C(=O)C2CCN(C(=O)C3(C)CC3)CC2)C[C@H]1c1ccc(Cl)c(Cl)c1` [Example 5, {(3S,4R)-4-(3,4-Dichloro-phenyl)-1-[1-(1-methyl-cyclopropanecarbonyl)-piperidine-4-carbonyl]-pyrrolidin-3-yl}-ethyl-carbamic acid 4-fluoro-phenyl ester]: the Ki came out at 0.002 µM.
As for `CCN(C(=O)Oc1ccc(F)cc1)[C@H]1CN(C(=O)C2CCN(C(=O)C3(C)CC3)CC2)C[C@@H]1c1ccc(Cl)c(Cl)c1` [Example 6, {(3R,4S)-4-(3,4-Dichloro-phenyl)-1-[1-(1-methyl-cyclopropanecarbonyl)-piperidine-4-carbonyl]-pyrrolidin-3-yl}-ethyl-carbamic acid 4-fluoro-phenyl ester], the Ki is 0.062 µM.
`CCN(C(=O)Oc1ccc(F)cc1)[C@H]1CN(C(=O)C2CCN(c3cc(C#N)ccn3)CC2)C[C@@H]1c1ccc(Cl)cc1` [Example 9, [(3R,4S)-4-(4-Chloro-phenyl)-1-(4′-cyano-3,4,5,6-tetrahydro-2H-[1,2′]bipyridinyl-4-carbonyl)-pyrrolidin-3-yl]-ethyl-carbamic acid 4-fluoro-phenyl ester]: the Ki turned out to be 0.138 µM.
Same read-out and setting: next, `CCN(C(=O)Oc1ccc(F)cc1)[C@H]1CN(C(=O)C2CCN(c3cnc(C#N)cn3)CC2)C[C@@H]1c1ccc(Cl)cc1` [Example 11, {(3R,4S)-4-(4-Chloro-phenyl)-1-[1-(5-cyano-pyrazin-2-yl)-piperidine-4-carbonyl]-pyrrolidin-3-yl}-ethyl-carbamic acid 4-fluoro-phenyl ester]: 0.036 µM; `CCN(C(=O)Oc1ccc(F)cc1)[C@@H]1CN(C(=O)C2CCN(c3cc(C#N)ccn3)CC2)C[C@H]1c1ccc(Cl)cc1` [Example 15, [(3S,4R)-4-(4-Chloro-phenyl)-1-(4′-cyano-3,4,5,6-tetrahydro-2H-[1,2′]bipyridinyl-4-carbonyl)-pyrrolidin-3-yl]-ethyl-carbamic acid 4-fluoro-phenyl ester]: 0.008 µM.
Regarding `CCN(C(=O)Oc1ccc(F)cc1)[C@@H]1CN(C(=O)C2CCN(c3cnc(C#N)cn3)CC2)C[C@H]1c1ccc(Cl)cc1` [Example 17, {(3S,4R)-4-(4-Chloro-phenyl)-1-[1-(5-cyano-pyrazin-2-yl)-piperidine-4-carbonyl]-pyrrolidin-3-yl}-ethyl-carbamic acid 4-fluoro-phenyl ester], the Ki was 0.002 µM.
